Reference: ChEMBL document CHEMBL1131926, “Synthesis and thromboxane A2 antagonistic activity of indane derivatives” (Bioorg Med Chem Lett, 1999)

Experiments:
Thromboxane A2 receptor = molecular target: T1, Thromboxane A2 receptor (Rattus norvegicus, UniProt P34978); experiment: In vitro thromboxane A2 antagonistic activity on U-46619 (0.1 uM) induced contraction of rat aorta; assay type: functional, tissue-based
T1 sequence (P34978 whole entry): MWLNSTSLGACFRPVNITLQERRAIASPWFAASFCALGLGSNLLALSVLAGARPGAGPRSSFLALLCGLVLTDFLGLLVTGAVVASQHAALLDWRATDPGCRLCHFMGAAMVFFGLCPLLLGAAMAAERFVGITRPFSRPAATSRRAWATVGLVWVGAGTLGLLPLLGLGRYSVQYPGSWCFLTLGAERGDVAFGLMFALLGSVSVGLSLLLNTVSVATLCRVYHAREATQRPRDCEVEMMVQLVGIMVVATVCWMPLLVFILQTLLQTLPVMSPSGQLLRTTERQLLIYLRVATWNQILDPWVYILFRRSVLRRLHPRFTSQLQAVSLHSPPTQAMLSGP

Cavia porcellus [1] = experiment: Extra vivo inhibitory activity of compound (0.3 mg/kg p.o.) on the aggregation of guinea pig platelets induced by U-46619 (1 uM); assay type: functional
Cavia porcellus [2] = experiment: Ex vivo inhibitory activity (0.3 mg/kg p.o.) on the aggregation of guinea pig platelets induced by arachidonic acid (100 uM); assay type: functional
Cavia porcellus [3] = organism: Cavia porcellus; experiment: In vitro inhibitory activity for the aggregation of guinea pig platelets induced by U-46,619 (4 uM) was determined; assay type: functional
Homo sapiens = organism: Homo sapiens; experiment: In vitro inhibitory activity for the aggregation of human platelets induced by U-46,619 (1 uM) was determined; assay type: functional
Cavia porcellus [4] = organism: Cavia porcellus; experiment: Extra vivo inhibitory activity for the aggregation of guinea pig platelets induced by U-46,619 (4 uM) was determined; assay type: functional, organism-based
Cavia porcellus [5] = organism: Cavia porcellus; experiment: Extra vivo inhibitory activity of compound for the aggregation of guinea pig platelets induced by U-46,619 (4 uM) was determined; assay type: functional, organism-based

IC50 (Thromboxane A2 receptor) [nM] | SMILES | Inhibition (Cavia porcellus [1]) [%] | Inhibition (Cavia porcellus [2]) [%] | other results
1400 | CCCCCS(=O)(=O)NCC1Cc2ccc(CC(=O)O)cc2C1 (configuration not stated) | – | – | –
26.3 | O=C([O-])c1ccc2c(c1)CC(CNS(=O)(=O)c1ccc(Cl)cc1)C2.[Na+] (configuration not stated) | 58 | 29 | –
513 | O=C(O)Cc1ccc2c(c1)CC(CCCNS(=O)(=O)c1ccc(Cl)cc1)C2 (configuration not stated) | – | – | –
22.4 | O=C([O-])Cc1ccc2c(c1)CC(CNS(=O)(=O)c1ccc3ccccc3c1)C2.[Na+] (configuration not stated) | 100 | 100 | IC50 (Cavia porcellus [3]): 310 nM; IC50 (Homo sapiens): 290 nM; ED50 (Cavia porcellus [4]): 0.13 mg/kg
295 | O=C(O)Cc1ccc2c(c1)CC(CNS(=O)(=O)c1cccc3ccccc13)C2 (configuration not stated) | – | – | –
1900 | O=C(O)Cc1ccc2c(c1)CC(CNS(=O)(=O)c1cccnc1)C2 (configuration not stated) | – | – | –
> 479 | O=C(O)c1ccc2c(c1)CC(CCCCNS(=O)(=O)c1ccc(Cl)cc1)C2 (configuration not stated) | – | – | –
38.9 | O=C([O-])CCCc1ccc2c(c1)CC(CNS(=O)(=O)c1ccc(Cl)cc1)C2.[Na+] (configuration not stated) | 100 | 100 | ED50 (Cavia porcellus [5]): 0.083 mg/kg; IC50 (Cavia porcellus [3]): 230 nM; IC50 (Homo sapiens): 2690 nM
85.1 | O=C(O)c1ccc2c(c1)CC(CCCNS(=O)(=O)c1ccc(Cl)cc1)C2 (configuration not stated) | – | – | –
66.1 | O=C(O)c1ccc2c(c1)CC(CCNS(=O)(=O)c1ccc(Cl)cc1)C2 (configuration not stated) | – | – | –
141 | O=C(O)Cc1ccc2c(c1)CC(CNS(=O)(=O)c1ccc(Cl)cc1)O2 (configuration not stated) | – | – | –
5900 | O=C(O)Cc1ccc2c(c1)CC(CNS(=O)(=O)Cc1ccccc1)C2 (configuration not stated) | – | – | –
1200 | O=C(O)Cc1ccc2c(c1)CC(CNS(=O)(=O)C1CCCCC1)C2 (configuration not stated) | – | – | –
14.8 | O=C([O-])CCc1ccc2c(c1)CC(CNS(=O)(=O)c1ccc(Cl)cc1)C2.[Na+] (configuration not stated) | 98 | 57 | –
3.02 | O=C([O-])Cc1ccc2c(c1)CC(CNS(=O)(=O)c1ccc(Cl)cc1)C2.[Na+] (configuration not stated) | 100 | 100 | ED50 (Cavia porcellus [5]): 0.063 mg/kg; IC50 (Cavia porcellus [3]): 270 nM; IC50 (Homo sapiens): 280 nM
977 | O=C(O)Cc1ccc2c(c1)CC(CCCCNS(=O)(=O)c1ccc(Cl)cc1)C2 (configuration not stated) | – | – | –
2.19 | O=C(O)Cc1ccc2c(c1)CC(NS(=O)(=O)c1ccc(Cl)cc1)C2 (configuration not stated) | – | – | –
12.9 | O=C(O)Cc1ccc2c(c1)CC(CNS(=O)(=O)c1ccccc1)C2 (configuration not stated) | – | – | –
– | O=C(O)Cc1ccc(CCNS(=O)(=O)c2ccc(Cl)cc2)cc1 [DALTROBAN] | 55 | 25 | IC50 (Cavia porcellus [3]): 500 nM; IC50 (Homo sapiens): 370 nM; ED50 (Cavia porcellus [4]): 0.53 mg/kg
35.5 | O=C(O)CCCCc1ccc2c(c1)CC(CNS(=O)(=O)c1ccc(Cl)cc1)C2 (configuration not stated) | – | – | –
85.1 | O=C(O)Cc1ccc2c(c1)CC(CNS(=O)(=O)c1cccs1)C2 (configuration not stated) | – | – | –
31.6 | O=C([O-])Cc1ccc2c(c1)CC(CCNS(=O)(=O)c1ccc(Cl)cc1)C2.[Na+] (configuration not stated) | 96 | 83 | –
